Biological target: T1, human mAChR M4 (Homo sapiens, UniProt P08173)
T1 construct: expressed in transfected cells
T1 sequence (P08173 1-479): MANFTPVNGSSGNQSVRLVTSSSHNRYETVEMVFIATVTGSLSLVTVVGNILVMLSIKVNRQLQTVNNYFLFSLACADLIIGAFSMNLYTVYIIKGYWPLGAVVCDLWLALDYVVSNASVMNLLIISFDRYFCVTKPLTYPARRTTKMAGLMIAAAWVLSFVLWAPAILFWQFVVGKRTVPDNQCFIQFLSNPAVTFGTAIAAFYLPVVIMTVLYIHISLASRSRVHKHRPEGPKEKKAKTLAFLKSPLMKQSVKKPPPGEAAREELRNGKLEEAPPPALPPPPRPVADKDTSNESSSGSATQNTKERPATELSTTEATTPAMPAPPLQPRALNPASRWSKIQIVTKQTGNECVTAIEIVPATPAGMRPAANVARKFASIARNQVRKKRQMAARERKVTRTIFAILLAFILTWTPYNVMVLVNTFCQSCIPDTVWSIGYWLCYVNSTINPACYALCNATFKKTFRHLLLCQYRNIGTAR
Assay: mAChR M4 cell-based functional assay (calcium mobilization, CHO-K1 hM4-Gqi5 cells)
Settings: for Emax at 30 µM: CHO-K1, % ACh maximum at 30 μM, human M4; for EC50: positive allosteric modulator activity, increase in the EC20 acetylcholine response, CHO-K1 hM4-Gqi5 cells, read-out: Human M4 EC50
How it was run: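 Fluorescent calcium read-out (Fluo-4 AM, FDSS, 1 Hz) in hM4-Gqi5 CHO-K1 cells, 11-point 1:3 compound series. Agonism scored on compound addition, PAM activity as increase of the 144 s EC20 acetylcholine response, antagonism as decrease of the 230 s EC80 response; four-parameter logistic fits give EC50 and Emax.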

| SMILES | Emax at 30 µM [%] | EC50 [nM] |
| --- | --- | --- |
| Cc1cc(C(=O)NCc2ccc(S(C)(=O)=O)cc2)cnc1N1CCc2ncccc2C1 [compound 143, 6-(7,8-dihydro-5H-1,6-naphthyridin-6-yl)-5-methyl-N-[(4-methylsulfonylphenyl)methyl] pyridine-3-carboxamide] | 53 | 5830 |
| Cc1ncc(-c2cnc3c(c2)CN(c2nnc(C#N)c(C)c2C)CC3)s1 [compound 293, 4,5-dimethyl-6-(3-(2-methylthiazol-5-yl)-7,8-dihydro-1,6-naphthyridin-6(5H)-yl)pyridazine-3-carbonitrile] | 85 | 354 |
| Cc1cc(C#N)cnc1N1CCc2ncc(N3CCN(C)CC3=O)cc2C1 [Example 420, 5-methyl-6-(3-(4-methyl-2-oxopiperazin-1-yl)-7,8-dihydro-1,6-naphthyridin-6(5H)-yl)nicotinonitrile] | 43 | ≥ 10000 |
| Cc1cc(C#N)cnc1N1CCc2ncc(-c3cnn(Cc4ccccc4)c3)cc2C1 [compound 97, 6-[3-(1-benzylpyrazol-4-yl)-7,8-dihydro-5H-1,6-naphthyridin-6-yl]-5-methyl-pyridine-3-carbonitrile] | 81 | 680 |
| Cc1cc(C(=O)NCc2ccc(-n3ccnc3)nc2)cnc1N1CCc2ncccc2C1 [compound 148, 6-(7,8-dihydro-5H-1,6-naphthyridin-6-yl)-N-[(6-imidazol-1-yl-3-pyridyl)methyl]-5-methyl-pyridine-3-carboxamide] | 67 | 3540 |
| Cc1cc(C(=O)NC2CCCCC2)cnc1N1CCc2ncccc2C1 [compound 66, N-cyclohexyl-6-(7,8-dihydro-5H-1,6-naphthyridin-6-yl)-5-methyl-pyridine-3-carboxamide] | 47 | ≥ 10000 |
| Cc1nc(Cl)c(C)c(N2CCc3ncc(-c4ccc(F)nc4)cc3C2)n1 [compound 224, 6-(6-chloro-2,5-dimethylpyrimidin-4-yl)-3-(6-fluoropyridin-3-yl)-5,6,7,8-tetrahydro-1,6-naphthyridine] | 82 | 214 |
| Cc1cc(C(=O)NCc2ccnc3ccccc23)cnc1N1CCc2ncccc2C1 [compound 131, 6-(7,8-dihydro-5H-1,6-naphthyridin-6-yl)-5-methyl-N-(4-quinolylmethyl)pyridine-3-carboxamide] | 57 | 876 |
| Cc1cc(C(=O)NCc2nc3ccccc3s2)cnc1N1CCc2ncc(-c3cn(C)nc3C)cc2C1 [Example 453, N-(benzo[d]thiazol-2-ylmethyl)-6-(3-(1,3-dimethyl-1H-pyrazol-4-yl)-7,8-dihydro-1,6-naphthyridin-6(5H)-yl)-5-methylnicotinamide] | 92 | 828 |
| Clc1nc2c(c(N3CCc4ncc(-c5cnn(C6CC6)c5)cc4C3)n1)COC2 [compound 286, 2-chloro-4-(3-(1-cyclopropyl-1H-pyrazol-4-yl)-7,8-dihydro-1,6-naphthyridin-6(5H)-yl)-5,7-dihydrofuro[3,4-d]pyrimidine] | 33 | 504 |
| Cc1c(C(=O)NCc2ccncc2)nnc(N2CCc3ncccc3C2)c1C [compound 135, 6-(7,8-dihydro-5H-1,6-naphthyridin-6-yl)-4,5-dimethyl-N-(4-pyridylmethyl)pyridazine-3-carboxamide] | 84 | 1800 |
| Cc1cc(C)n(-c2cnc3c(c2)CN(c2ncc(C#N)cc2C)CC3)n1 [Example 346, 6-(3-(3,5-dimethyl-1H-pyrazol-1-yl)-7,8-dihydro-1,6-naphthyridin-6(5H)-yl)-5-methylnicotinonitrile] | 88 | 1300 |

Other lines, results leading:

| Emax at 30 µM [%] | EC50 [nM] | SMILES |
| --- | --- | --- |
| 94 | 864 | COCc1nc(Cl)c(C)c(N2CCc3ncc(-c4cn(C)nc4C)cc3C2)n1 [compound 216, 6-(6-chloro-2-(methoxymethyl)-5-methylpyrimidin-4-yl)-3-(1,3-dimethyl-1H-pyrazol-4-yl)-5,6,7,8-tetrahydro-1,6-naphthyridine] |
| 102 | 37 | Cc1cc(C(=O)NCc2ccncc2F)nnc1N1CCc2ncc(C(F)(F)F)cc2C1 [Example 496, N-((3-fluoropyridin-4-yl)methyl)-5-methyl-6-(3-(trifluoromethyl)-7,8-dihydro-1,6-naphthyridin-6(5H)-yl)pyridazine-3-carboxamide] |
| 90 | 148 | Cc1cc2n(n1)CCCN2c1cnc2c(c1)CN(c1nnc(C#N)c(C)c1C)CC2 [Example 363, 4,5-dimethyl-6-(3-(2-methyl-6,7-dihydropyrazolo[1,5-a]pyrimidin-4(5H)-yl)-7,8-dihydro-1,6-naphthyridin-6(5H)-yl)pyridazine-3-carbonitrile] |
| 70 | 876 | Cc1cc(F)ncc1-c1cnc2c(c1)CN(c1nnc(C#N)cc1C)CC2 [Example 593, 6-(3-(6-fluoro-4-methylpyridin-3-yl)-7,8-dihydro-1,6-naphthyridin-6(5H)-yl)-5-methylpyridazine-3-carbonitrile] |
| 65 | 279 | COc1ccc(-c2cnc3c(c2)CN(c2nc(C)nc(C)c2C)CC3)cn1 [compound 230, 3-(6-methoxypyridin-3-yl)-6-(2,5,6-trimethylpyrimidin-4-yl)-5,6,7,8-tetrahydro-1,6-naphthyridine] |
| 90 | 277 | Cc1cc(C#N)cnc1N1CCc2ncc(-c3ccnc(C4CC4)c3)cc2C1 [Example 339, 6-(3-(2-cyclopropylpyridin-4-yl)-7,8-dihydro-1,6-naphthyridin-6(5H)-yl)-5-methylnicotinonitrile] |
| 84 | 562 | Cc1cc(C(=O)NCc2ccccn2)cnc1N1CCc2ncc(-c3cn(C)nc3C)cc2C1 [Example 458, 6-(3-(1,3-dimethyl-1H-pyrazol-4-yl)-7,8-dihydro-1,6-naphthyridin-6(5H)-yl)-5-methyl-N-(pyridin-2-ylmethyl)nicotinamide] |
| 86 | 286 | Cc1cc(C#N)cnc1N1CCc2ncc(N3CCCC3)cc2C1 [Example 1] |
| 85 | 1320 | Cc1cc(C#N)cnc1N1CCc2ncc(N3CCO[C@H](c4ccccc4)C3)cc2C1 [Example 375, (R)-5-methyl-6-(3-(2-phenylmorpholino)-7,8-dihydro-1,6-naphthyridin-6(5H)-yl)nicotinonitrile] |
| 78 | 214 | Cc1nn(C)cc1-c1cnc2c(c1)CN(c1nc(N3CCCC3)nc(C)c1C)CC2 [compound 271, 3-(1,3-dimethyl-1H-pyrazol-4-yl)-6-(5,6-dimethyl-2-(pyrrolidin-1-yl)pyrimidin-4-yl)-5,6,7,8-tetrahydro-1,6-naphthyridine] |
| 78 | 433 | Cc1ncc(-c2cnc3c(c2)CN(c2nnc(C#N)cc2C)CC3)s1 [Example 390, 5-methyl-6-(3-(2-methylthiazol-5-yl)-7,8-dihydro-1,6-naphthyridin-6(5H)-yl)pyridazine-3-carbonitrile] |
| 50 | 379 | Cc1cc(C(=O)NCc2ccc(-n3ccnc3)nc2)cnc1N1CCc2ncc(-c3cn(C)nc3C)cc2C1 [Example 478, N-((6-(1H-imidazol-1-yl)pyridin-3-yl)methyl)-6-(3-(1,3-dimethyl-1H-pyrazol-4-yl)-7,8-dihydro-1,6-naphthyridin-6(5/)-yl)-5-methylnicotinamide] |
| 101 | 36 | Cc1cnccc1CNC(=O)c1nnc(N2CCc3ncc(C(F)(F)F)cc3C2)c(C)c1C [Example 464, 4,5-dimethyl-N-((3-methylpyridin-4-yl)methyl)-6-(3-(trifluoromethyl)-7,8-dihydro-1,6-naphthyridin-6(5H)-yl)pyridazine-3-carboxamide] |
| 58 | ≥ 10000 | Cc1cc(C(=O)NCC2CCCCO2)cnc1N1CCc2ncccc2C1 (stereo not shown) [compound 161, 6-(7,8-dihydro-5H-1,6-naphthyridin-6-yl)-5-methyl-N-(tetrahydropyran-2-ylmethyl)pyridine-3-carboxamide] |
| 56 | 1050 | Cc1cc(C#N)nnc1N1CCc2ncc(-n3cccn3)cc2C1 [Example 400, 6-(3-(1H-pyrazol-1-yl)-7,8-dihydro-1,6-naphthyridin-6(5H)-yl)-5-methylpyridazine-3-carbonitrile] |
| 105 | 84 | Cc1cc(C(=O)NCc2cncs2)cnc1N1CCc2ncc(Nc3ccnn3C)cc2C1 [Example 449, 5-methyl-6-(3-((1-methyl-1H-pyrazol-5-yl)amino)-7,8-dihydro-1,6-naphthyridin-6(5H)-yl)-N-(thiazol-5-ylmethyl)nicotinamide] |
| 67 | 1340 | COc1ccc(Oc2cnc3c(c2)CN(c2nc(C)nc(Cl)c2C)CC3)cn1 [compound 205, 6-(6-chloro-2,5-dimethyl-pyrimidin-4-yl)-3-[(6-methoxy-3-pyridyl)oxy]-7,8-dihydro-5H-1,6-naphthyridine] |

Source: US20250230155A1 (Vanderbilt University, priority 2021, published 2025)
